Laboratory results from patent publication US8846749B2, “Anticancer-aiding compound, method for preparing the same, anticancer-aiding composition containing the same and method for reducing anticancer drug resistance using the same” (Ewha University-Industry Collaboration Foundation, priority 2009, dated 2014).
pIC50: −log10 of the molar value.

Experiments:
P-gp = P-gp (Homo sapiens, UniProt P08183); details: 1 h, 100 μM
MCF-7/ADR cells = assay: Effects of compounds on cytotoxicity of daunomycin (SRB staining); format: cell-based; details: Homo sapiens, NCI/ADR-RES, daunomycin alone (DMSO control), 2-hour incubation, SRB after 3 days
Experimental: The cells were cultured to confluence on the plate at 37° C. for 24 hours.
At this time, the group to which only DMSO was added in place of the compounds in accordance with the present invention was taken as a control. […] After 3 days, cytotoxicity was examined according to an SRB staining method which is briefly described as follows. Cells were fixed with 10% TCA for one hour, washed 4 times with water, and then dried. An SRB reagent (0.4% w/v in 1% acetic acid) was added to each well and one hour later, the plate was washed 4 times with 1% acetic acid.

Sequence of P-gp (P08183 whole entry): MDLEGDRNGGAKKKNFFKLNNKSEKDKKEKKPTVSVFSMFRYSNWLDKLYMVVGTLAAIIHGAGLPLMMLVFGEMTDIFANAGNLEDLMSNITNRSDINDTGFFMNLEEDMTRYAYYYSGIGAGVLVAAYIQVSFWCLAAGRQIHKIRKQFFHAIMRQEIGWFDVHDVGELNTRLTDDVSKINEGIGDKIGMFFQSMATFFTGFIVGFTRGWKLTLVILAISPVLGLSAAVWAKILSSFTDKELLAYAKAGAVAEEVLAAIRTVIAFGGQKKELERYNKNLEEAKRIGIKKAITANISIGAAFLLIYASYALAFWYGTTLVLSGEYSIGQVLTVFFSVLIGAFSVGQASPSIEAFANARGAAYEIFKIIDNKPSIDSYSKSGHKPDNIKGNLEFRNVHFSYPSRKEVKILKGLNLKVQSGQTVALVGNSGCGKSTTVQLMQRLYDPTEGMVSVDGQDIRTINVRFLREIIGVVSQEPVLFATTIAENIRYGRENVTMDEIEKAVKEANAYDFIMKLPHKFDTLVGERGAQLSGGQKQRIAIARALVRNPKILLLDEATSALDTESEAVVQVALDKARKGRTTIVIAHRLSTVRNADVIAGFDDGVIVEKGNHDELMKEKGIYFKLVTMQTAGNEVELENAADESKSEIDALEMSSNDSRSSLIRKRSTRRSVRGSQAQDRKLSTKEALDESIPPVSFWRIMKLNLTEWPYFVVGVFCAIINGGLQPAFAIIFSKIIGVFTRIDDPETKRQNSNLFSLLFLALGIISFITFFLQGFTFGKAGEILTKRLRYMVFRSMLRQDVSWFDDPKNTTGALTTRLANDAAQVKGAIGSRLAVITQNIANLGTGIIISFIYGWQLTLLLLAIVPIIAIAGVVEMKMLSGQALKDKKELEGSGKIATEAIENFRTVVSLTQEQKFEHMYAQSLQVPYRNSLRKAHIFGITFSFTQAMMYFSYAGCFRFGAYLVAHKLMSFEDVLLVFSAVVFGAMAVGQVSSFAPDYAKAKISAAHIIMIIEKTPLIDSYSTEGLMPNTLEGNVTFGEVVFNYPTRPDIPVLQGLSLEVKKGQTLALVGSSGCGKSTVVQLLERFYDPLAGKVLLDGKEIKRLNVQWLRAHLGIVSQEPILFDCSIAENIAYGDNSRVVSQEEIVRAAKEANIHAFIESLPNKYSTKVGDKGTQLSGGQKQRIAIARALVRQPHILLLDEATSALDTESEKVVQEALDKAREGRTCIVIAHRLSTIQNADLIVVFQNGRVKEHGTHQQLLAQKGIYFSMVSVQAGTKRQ

Row | melting point [°C] | Structure (SMILES) | Cellular efflux amount of daunomycin (%) (P-gp) | pIC50 (MCF-7/ADR cells)
1 | 184 | COc1cccc2c(=O)c3c(O)cc(OCC(O)CCl)cc3oc12 (stereo not shown) [Compound 1, 3-(3-chloro-2-hydroxypropoxy)-1-hydroxy-5-methoxy-9H-xanthen-9-one] | – | –
2 | 144 | O=c1c2ccccc2oc2cc(OCC(O)CCl)cc(O)c12 (stereo not shown) [Compound 2, 3-(3-chloro-2-hydroxypropoxy)-1-hydroxy-9H-xanthen-9-one] | – | –
3 | 187 | COc1cccc2c(=O)c3c(O)cc(OCC4CS4)cc3oc12 (stereo not shown) [Compound 3, 1-hydroxy-5-methoxy-3-(thiiran-2-ylmethoxy)-9H-xanthen-9-one] | – | –
4 | 240 | COc1cccc2c(=O)c3c(OCC4CS4)cc(OCC4CS4)cc3oc12 (stereo not shown) [Compound 5, 1,3-bis(thiiran-2-ylmethoxy)-5-methoxy-9H-xanthen-9-one] | – | –
5 | 170 | O=c1c2ccccc2oc2cc(OCC(O)CO)cc(O)c12 (stereo not shown) [Compound 6, 3-(2,3-dihydroxypropoxy)-1-hydroxy-9H-xanthen-9-one] | – | –
6 | 189 | COc1cccc2c(=O)c3c(O)cc(OCC(O)CO)cc3oc12 (stereo not shown) [Compound 7, 3-(2,3-dihydroxypropoxy)-1-hydroxy-5-methoxy-9H-xanthen-9-one] | – | –
7 | 149 | O=c1c2ccccc2sc2cc(OCC3CS3)cc(O)c12 (stereo not shown) [Compound 8, 1-hydroxy-3-(thiiran-2-ylmethoxy)-9H-thioxanthen-9-one] | – | –
8 | 107 | COc1cc(OCC(O)CCl)cc2oc3ccccc3c(=O)c12 (stereo not shown) [Compound 9, 3-(3-chloro-2-hydroxypropoxy)-1-methoxy-9H-xanthen-9-one] | – | –
9 | 151 | O=c1c2ccccc2sc2cc(OCC(O)CCl)cc(O)c12 (stereo not shown) [Compound 10, 3-(3-chloro-2-hydroxypropoxy)-1-hydroxy-9H-thioxanthen-9-one] | – | –
10 | 134 | O=c1c2ccccc2sc2cc(OCC(S)CCl)cc(O)c12 (stereo not shown) [Compound 11, 3-(3-chloro-2-mercaptopropoxy)-1-hydroxy-9H-thioxanthen-9-one] | – | –
11 | 125 | COc1cccc2c(=O)c3c(O)cc(OCC(S)CCl)cc3oc12 (stereo not shown) [Compound 13, 3-(3-chloro-2-mercaptopropoxy)-1-hydroxy-5-methoxy-9H-xanthen-9-one] | – | –
12 | 198 to 200 | O=c1c2c(OCC3CO3)cc(OCC3CO3)cc2oc2ccc3ccccc3c12 (stereo not shown) [Compound 17, 9,11-bis(oxiran-2-ylmethoxy)-12H-benzo[a]xanthen-12-one] | – | –
13 | – | O=c1c2cc3ccccc3cc2oc2cc(OCC3CS3)cc(O)c12 (stereo not shown) [Compound 18, 1-hydroxy-3-(thiiran-2-ylmethoxy)-12H-benzo[b]xanthen-12-one] | 44.15 ± 5.08 | –
14 | – | O=c1c2cc3ccccc3cc2oc2cc(OCC3CS3)cc(OCC3CS3)c12 (stereo not shown) [Compound 19, 1,3-bis(thiiran-2-ylmethoxy)-12H-benzo[b]xanthen-12-one] | 42.45 ± 7.23 | –
15 | – | COc1cccc2c1C(=O)c1c(O)c3c(c(O)c1C2=O)C[C@@](O)(C(C)=O)C[C@@H]3O[C@H]1C[C@H](N)[C@H](O)[C@H](C)O1 [DNM, Daunomycin] | – | 4.59
16 | 201 to 202 | O=c1c2cc3ccccc3cc2oc2cc(OCC3CO3)cc(O)c12 (stereo not shown) [Example 20, 1-hydroxy-3-(oxiran-2-ylmethoxy)-12H-benzo[b]xanthen-12-one] | – | –

Row | Structure (SMILES) | melting point [°C] | Cellular efflux amount of daunomycin (%) (P-gp) | pIC50 (MCF-7/ADR cells)
17 | O=c1c2ccc3ccccc3c2oc2cc(OCC3CS3)cc(OCC3CS3)c12 (stereo not shown) [Compound 12, 8,10-bis(thiiran-2-ylmethoxy)-7H-benzo[c]xanthen-7-one] | 202 | 40.39 ± 4.38 | –
18 | O=c1c2c(O)cc(OCC3CS3)cc2oc2ccc3ccccc3c12 (stereo not shown) [Compound 14, 11-hydroxy-9-(thiiran-2-ylmethoxy)-12H-benzo[a]xanthen-12-one] | 167 to 168 | 64.81 ± 20.45 | –
19 | O=c1c2c(OCC3CS3)cc(OCC3CS3)cc2oc2ccc3ccccc3c12 (stereo not shown) [Compound 15, 9,11-bis(thiiran-2-ylmethoxy)-12H-benzo[a]xanthen-12-one] | 225 to 226 | 40.04 ± 5.33 | –
